{"source": "paper PMC6405842", "about": "“Identification of a novel scaffold for a small molecule GPR139 receptor agonist” (Scientific Reports, 2019)", "assay_type_in_all_cases": "cell-based", "key": {"GPR139 [1]": {"target": "T1, GPR139 (Homo sapiens, UniProt Q6DWJ6)", "T1 construct": "host or cells: CHO-k1", "T1 sequence (Q6DWJ6 1-353)": "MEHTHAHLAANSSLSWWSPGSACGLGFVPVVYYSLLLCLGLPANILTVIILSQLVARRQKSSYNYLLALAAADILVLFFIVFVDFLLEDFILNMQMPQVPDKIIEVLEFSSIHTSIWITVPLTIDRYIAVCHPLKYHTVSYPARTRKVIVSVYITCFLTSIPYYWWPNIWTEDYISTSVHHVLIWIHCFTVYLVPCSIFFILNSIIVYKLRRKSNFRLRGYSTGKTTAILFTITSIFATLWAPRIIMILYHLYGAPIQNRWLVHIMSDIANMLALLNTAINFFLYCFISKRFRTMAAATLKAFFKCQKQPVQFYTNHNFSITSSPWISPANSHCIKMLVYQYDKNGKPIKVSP", "experiment": "Fluo-4 calcium mobilization assay, agonist mode, concentration-response curves in CHO-GPR139 cells", "method": "All compounds were tested on a CHO-k1 cell line stably expressing GPR139 (CHO-GPR139)[11] kindly provided by H. Lundbeck A/S, Denmark. GPR139-specific responses were assessed using a CHO-k1 cell line stably expressing the muscarinic acetylcholine receptor M1 (CHO-M1) (The Missouri S&T cDNA Resource Center, # CEM100TN00). The CHO-GPR139 cells were grown in Dulbecco’s modified Eagle’s medium (DMEM) F12-Kaighn’s (ThermoFisher Scientific # 21127) supplemented with 10% dialyzed fetal bovine serum (United States origin; ThermoFisher Scientific # 26400), 1% GlutaMAX-I (100X) (ThermoFisher Scientific # 35050061), and 100 units/mL penicillin and 100 µg/mL streptomycin (ThermoFisher Scientific # 15140122) and 1 mg/mL geneticin (ThermoFisher Scientific # 11811031). The CHO-M1 cells were grown in Ham’s F12 (ThermoFisher Scientific # 21765) supplemented with 10% fetal bovine serum (South American origin; ThermoFisher Scientific # 10270) + 100 units/mL penicillin and streptomycin and 0.25 mg/mL geneticin.\nThe Fluo-4 Ca^2+-assay was performed as described previously, with minor modifications. After 1 hour incubation with the Fluo-4 dye, the CHO-GPR139 cells were washed with 100 μL HEPES buffer (Hank’s Balanced Salt Solution (HBBS, ThermoFisher Scientific # 14175053) supplemented with 20 mM HEPES, 1 mM MgCl2, 1 mM CaCl2, pH = 7.4) and the compound library was then added in concentrations between 25–63 μM dissolved in HEPES buffer (supplemented with 2.5 mM probenecid and 1% DMSO) and pre-incubated for 10 min at 37 °C. 33 μL of 3.2 μM 1a were added automatically after baseline measurements. […] This set-up allowed us to identify both antagonists and agonists (Fig. 2).\nEach compound, for which a concentration response curve was made, was tested at least three times in duplicate measurements. After the incubation with the Fluo-4 dye and a wash, 100 μL HEPES buffer (supplemented with 2.5 mM probenecid) was added to each well and incubated for 10 minutes at 37 °C before recording. 33 μL of compounds (4× concentrated) were added automatically after baseline measurements.\n(§1) The Ca^2+ and ERK responses were normalized as indicated and the concentration response curves were fitted by Prism 6 software (GraphPad) using nonlinear regression in a sigmoidal model with variable slope, as has been previously described."}, "GPR139 F109L^3×33": {"target": "T2, GPR139 F109L^3×33 (Homo sapiens, UniProt Q6DWJ6, F109L)", "T2 construct": "myc (N); expressed in transfected cells", "T2 sequence (Q6DWJ6 1-353 F109L)": "T1 sequence (Q6DWJ6 1-353) with F109L", "experiment": "Ca2+ mobilization on GPR139 mutant F109L", "conditions": "highest tested concentration (100 μM), n = 3", "method": "Figure 4 Ca^2+ mobilization concentration-response curves of AC4 on GPR139 wild-type (WT) and mutants. Data is shown from a representative experiment (mean ± S.D.) out of three independent experiments performed in duplicate. Data is normalized to the Ca^2+ response of buffer (0%) and 100 μM AC4 (100%) on myc-GPR139(WT). Residue numbering in superscript is according to GPCRdb numbering system.\nThe mutational studies were performed as previously described."}, "GPR139 [2]": {"target": "T1, GPR139", "experiment": "Phospho-ERK1/2 HTRF assay in CHO-GPR139 cells", "conditions": "ERK phosphorylation", "method": "All compounds were tested on a CHO-k1 cell line stably expressing GPR139 (CHO-GPR139)[11] kindly provided by H. Lundbeck A/S, Denmark. GPR139-specific responses were assessed using a CHO-k1 cell line stably expressing the muscarinic acetylcholine receptor M1 (CHO-M1) (The Missouri S&T cDNA Resource Center, # CEM100TN00).\nPhospho-ERK measurements were made using the Advanced Phospho-ERK1/2 (Thr202/Tyr204) HTRF kit by Cisbio (Codolet, France). Approximately 24 hours prior to the experiment, CHO-GPR139 cells were plated at 50,000 cells/well onto a 96-well plate and cultured as detailed above. Approximately 6 hours later, the media was aspirated, replaced with 50 μL serum-free media, and the cells were allowed to serum starve overnight. The day of the experiment, serial dilutions of the test compounds and controls were made in serum-free media at 2x final concentration. 50 μL of test compounds were added directly to the appropriate wells for 5 minute stimulation at 37 °C. At this point, the media and compounds were rapidly aspirated, lysis/blocking buffer was added, and cells were lysed on a shaker for 30 minutes at room temperature.\nas §1"}}, "note": "Residue numbers refer to the chain shown, from its start.", "data": [{"compound": "O=C(O)C1CC=CCC1c1nnc(CSc2ccc(Cl)cc2)o1", "note": "(stereo not drawn) [AC4]", "values": [{"measurement": "Emax", "setting": "GPR139 [1]; CHO-GPR139 cells, normalized to buffer (0%) and 8 μM 1a (100%)", "value": "116 ± 3", "unit": "%"}, {"measurement": "EC50", "setting": "GPR139 [1]; CHO-GPR139 cells, read-out: pEC50 ± S.E.M. (converted)", "value": 219, "unit": "nM"}, {"measurement": "Emax", "setting": "GPR139 [1]; Table S1, normalized to compound 1a", "value": "115 ± 3", "unit": "%"}, {"measurement": "Ca2+ response", "setting": "GPR139 F109L^3×33", "value": "17 ± 2 % of WT"}, {"measurement": "EC50", "setting": "GPR139 [2]; CHO-GPR139 cells, read-out: pEC50 ± SEM (converted)", "value": 178, "unit": "nM"}, {"measurement": "Emax", "setting": "GPR139 [2]; expressed relative to FBS positive control", "value": "77.2 ± 6.53", "unit": "%"}]}]}
